Measurements: patent publication US7855076B2, “Use of discoidin domain receptor 1 (DDR1) and agents that affect the DDR1/collagen pathway” (The United States of America as represented by the …, priority 2002, dated 2010)
Each block holds one compound with its values, some of them ahead of it.

How the values were obtained:
Format in all cases: cell-based, human
NF-κB [1] = assay: Nuclear translocation of NF-κB by EMSA; conditions: DDR1b-overexpressing cells on collagen-coated plates
Method: Nuclear translocation of NF-κB was examined by EMSA. Nuclear extracts were prepared by a method previously reported (Ueda et al., J. Biol. Chem. 272:31092, 1997), and aliquots were frozen at −80° C. For EMSA, end-labeled ^32P-oligonucleotide probes corresponding to the NF-KB binding site of the Ig κ-chain (5′-[…]-3′) (SEQ ID NO: 15) or MCP-1 (A2 site; 5′-[…]-3′) (SEQ ID NO: 16) gene were used. Each probe was incubated with 5 μg of nuclear extracts in 20 μl of binding cocktail (50 mM Tris-HCl, pH 7.4, 25 MM MgCl2, 0.5 mM DTT, 50% glycerol) at 4° C. for 15 minutes. The DNA-protein complexes were resolved on a 5% polyacrylanide gel. The dried gels were exposed to X-ray films.

NF-κB [2] = assay: NF-κB luciferase reporter assay in THP-1 cells; conditions: DDR1b-overexpressing cells, 12 hours
Method: For the results shown in FIG. 7A, mock-transduced or DDR1b-overexpressing THP-1 cells were transfected with 10 μg of the NF-κB-Luc plasmid and 5 μg of pSV-β-galactosidese plasmid DNA (Promega, Madison, Wis.) per 100-mm tissue culture plate using Effectene Transfection Reagent (Qiagen, Valencia, Calif.), according to the manufacture's protocol. After a 12-hour incubation, cells were rinsed with phosphate buffered saline (PBS) and then incubated with 10 nM PMA on collagen-coated plates in the presence of absence of SB203580, PD98059, CAPE or dimethlysulfoxide (DMSO) for another 12 hours. Cells were collected and lysed using the Reporter Lysis Buffer (Promega, Madison, Wis.), and luciferase activity and β-galactosidase activities were measured according to the protocol provided by the manufacturer. The resulting luciferase activity was corrected based on the β-galactosidase activity in the same cell extract. For the results shown in FIG. 7B, DDR1b-overexpressing THP-1 cells were transfected with 10 μg of the pGLM-ENH, or pGLM-MA1MA2 (Ueda et al., J. Bio. Chem. 272: 31092-9, 1997) and 5 μg of pSV-β-galactosidese plasmid DNA (Promega, Madison, Wis.) per 100-mm tissue culture plate using Effectene Transfection Reagent (Qiagen, Valencia, Calif.) according to the manufacture's protocol. […] Cells were collected and lysed using the Reporter Lysis Buffer (Promega, Madison, Wis.), and luciferase activity and β-galactosidase activities were measured according to the protocol provided by the manufacturer. […]
Mock-transduced or DDR1b-overexpressing THP-1 cells were transfected with 10 μg of the NF-κB-Luc plasmid, pGL-ENH, or pGL-MA1MA2 and 5 μg of pSV-β-galactosidase plasmid DNA (Promega, Madison, Wis.) per 100-mm tissue culture plate using Effectene Transfection Reagent (Qiagen, Valencia, Calif.) according to the manufacture's protocol. […] Luciferase activity and β-galactosidase activities were measured according to the protocol provided by the manufacturer. […]

THP-1 cells [3] = assay: Cytokine and chemokine release from PMA-treated THP-1 cells by ELISA; conditions: DDR1b-overexpressing THP-1 cells, PMA, collagen-coated plates, 48 hours
Method: The production of DDR1a- or 1b-overexpressing THP-1 cells was previously described (Kamohara et al., FASEB J. 15:2724, 2001). Briefly, the human monocytic leukemic cell line, THP-1, was transduced with control retrovirus containing the vector only (mock-transduced) or retrovirus expressing DDR1a or DDR1b. THP-1 cells transduced by each virus were selected with G418, and cloned by limiting dilution. The cloned THP-1 cells were maintained in RPMI 1640 medium supplemented with 100 μg/ml gentamycin and 10% FCS (complete medium). Cells were plated at 1×10^6/ml and treated with PMA (10 nM) for variable times on uncoated or collagen-coated tissue culture plates for quantification of cytokine or chemokine release.
In addition, the concentration of MCP-1 in the culture supernatant of each cell line was measured by ELISA. The concentration of MCP-1 was measured in the Lymphokine Testing Laboratory, Clinical Services Program, SAIC-Frederick (Frederick, Md.) by using an enzyme-linked immunosorbent assay (ELISA) kit (R&D Systems, Minneapolis, Minn.) specific for the chemokine.
In addition, the concentrations of IL-1β, IL-8, and MIP-1α in the culture supernatants of each cell line were quantified by ELISA (FIG. 6). The concentration of IL-1β, IL-8, and MIP-1α were measured in the Lymphokine Testing Laboratory, Clinical Services Program, SAIC-Frederick (Frederick, Md.) by using enzyme-linked immunosorbent assay (ELISA) kits (R&D Systems, Minneapolis, Minn.) specific for each human cytokine and chemokine. […]

p38 MAP kinase = assay: Phosphorylation of p38 MAP kinase in PMA-treated THP-1 cells, Western blotting; conditions: DDR1b-overexpressing cells treated before PMA-treatment
Method: Parental, mock, DDR1a- or DDR1b-overexpressing THP-1 cells were plated at 5×10^6/ml on uncoated tissue culture plates and stimulated with PMA (10 nM) for 24 hours, and then starved in RMPI 1640 without FCS for 10 hours. Subsequently cells were washed three times with PBS, and then incubated in the presence of 50 μg/ml collagen type I for various times.
Ten million cells were lysed on ice for 20 minutes in a buffer containing 50 mM NaCl, 20 mM Tris-HCl, 50 mM sodium fluoride, 30 mM Na4P2O7, 5 mM EGTA, 3 mM sodium orthovanadate, 1% Triton X-100, 1 mg/ml leupeptin, 1 mM PMSF, 1 mg/ml aprotinin, 1 mg/ml pepstatinA and 100 μM sodium orthovanadate treated with H2O2. A lysis buffer containing 150 mM NaCl, 50 mM HEPES, 1% Triton-X 10% glycerol, 1 mM sodium fluoride, 1 mM EDTA, 2 mM sodium orthovanadate, 1 mg/ml leupeptin, 1 mM PMSF, 1 mg/ml aprotinin, 1 mg/ml pepstatinA and 100 μM sodium orthovanadate treated with H2O2, was also used for immunoprecipitation with anti-Shc Ab. The lysates were spun in a microcentrifuge for 20 minutes and the supernatants were collected. […]
Eluted proteins were analyzed on 8% polyacrylamide gels by SDS-PAGE and transferred electrophoretically to nitrocellulose membranes at 150 mA for 1 hour by a semi-dry system. […] To detect phosphorylated or nonphosphorylated p38 MAP kinase or ATF-2, 20 μl of cell lysates were directly mixed with 20 μl of sample buffer and then analyzed.
Downstream signaling molecules that may play a role in the up-regulation of HLA-DR in collagen-activated PMA-treated DDR1b-overexpressing cells were identified in the following manner. […] Phosphorylation of p38 MAP kinase was first detected 30 minutes after collagen activation of DDR1b-overexpressing cells and the level of phosphorylation increased thereafter. […] Phosphorylation of p38 MAP kinase was not detected in DDR1a-overexpressing cells up to 120 minutes. […] Phosphorylation of other members of the MAP kinase family, ERK1, ERK2, and JNK could not be detected in collagen-activated PMA-treated DDR1b-overexpressing cells. […]

THP-1 cells [4] = assay: Flow cytometry of HLA-DR, CD11c, CD14, CD40 on PMA-treated THP-1 cells
Method: FIG. 5 is a graph showing the effects of collagen-activation of two DDR1 isoforms on the expression of CD11c, CD14, and CD40. Each cell line was plated at 5×10^6 cells/ml on either uncoated or collagen-coated plates and incubated at 37° C. for 24 hours in the presence of 10 nM PMA. Anti-1β integrin antibody (10 μg/ml) was used to block the effect of 1β integrin-collagen interaction. The percentage of CD11c, CD14, or CD40-positive cells is shown. Data are presented as the mean ±SD from three independent experiments.
Parental, mock, DDR1a-overexpressing, or DDR1b overexpressing THP-1 cells were plated at 5×10^6 cells/ml on either uncoated or collagen-coated plates and incubated at 37° C. for 24 or 48 hours in the presence of 10 nM PMA. One hundred thousand cells were suspended in 50 μl of cold PBS containing 0.1% NaN3, […] BSA and 200 μg/ml human IgG in a Falcon 2052 tube, and incubated for 10 minutes on ice. One μg of mouse monoclonal antibody against CD11c, CD14 CD40, or HLA-DR, or control mouse IgG were added to each tube and the cells were incubated for another 15 minutes on ice. The cells were washed with PBS, and then incubated with 1 μg of FITC-conjugated goat anti-mouse IgG for 15 minutes on ice. At the end of incubation, propidium iodide (PI) (100 μM) was added to each tube. The cells were washed by PBS, and subsequently analyzed by using a FACS scan (Becton Dickinson). Dead cells, determined by the incorporation of PI, were gated out. Results were processed by using the Cellquest software (Becton Dickinson).
The cells were then rinsed three times with RPMI 1640 containing 10% FCS, and incubated either with the p38 MAP kinase inhibitor SB203580, the MEK (MAP or ERK kinase) ½ inhibitor PD98059, or dimethylsulfoxide (DMSO) for 30 minutes, followed by an additional 12 hour incubation in the presence of 10 nM PMA plus collagen. The expression of HLA-DR was analyzed by flow cytometry.

DDR1 mRNA = DDR1 mRNA expression in PBMC by Northern blotting; conditions: 8 hours, TNF-α 5 ng/ml, IL-1β 10 ng/ml, IFN-γ 50 U/ml, GM-CSF 10 ng/ml, LPS 1 μg/ml, PHA 5 μg/ml
Method: PMN and PBMC were maintained at a density of 5×10^6 cells/ml in the complete medium in six-well tissue culture cluster (Coster, Cambridge, Mass.; 3 ml/well). Total RNA was extracted from each culture by using TRIZOL® Reagent. PolyA mRNA was purified on Oligotex columns (Qiagen, Valencia, Calif.). Northern blot analysis was performed as described (Yoshimura, J. Immunol. 150:5025, 1993), except that ULTRAhyb (Ambion) was used. A human DDR1 cDNA (757-bp) was obtained by PCR from a U-105 human glioblastoma cell line cDNA library and was ligated into the EcoRI/HindIII site of the pBluescript (Stratagene, La Jolla, Calif.). The sense primer was 5′-[…]-3′ (SEQ ID NO: 2; corresponding to residues between 68 and 87 in the nucleotide sequence of the trkE cDNA, GenBank accession number X74979) and the antisense primer was 5′-[…]-3′ (SEQ ID NO: 3; corresponding to residues between 805 and 824 in the nucleotide sequence of the trkE cDNA).
Freshly isolated PBMC expressed only a low level of DDR1 mRNA. The expression level was increased about eightfold when the cells were incubated in either RPMI 1640 or RPMI 1640 containing 10% FCS.

increased NF-κB/DNA binding (NF-κB [1]): completely abolished
Compound: O=C(/C=C/c1ccc(O)c(O)c1)OCCc1ccccc1 [CAPE]
increase in luciferase activity induced by PMA plus collagen (NF-κB [2]): completely inhibited
collagen-induced up-regulation of IL-8 release (THP-1 cells [3]): inhibited
collagen-induced up-regulation of MCP-1 release (THP-1 cells [3]): inhibited
collagen-induced up-regulation of MIP-1α release (THP-1 cells [3]): inhibited

Compound: C[C@@H]1C[C@@H]([C@H](O)CC2CC(=O)NC(=O)C2)C(=O)[C@@H](C)C1 [CHX, cycloheximide, reference compound]
phosphorylation of p38 MAP kinase in response to collagen (p38 MAP kinase): completely inhibited

Compound: COc1cccc(-c2cc(=O)c3ccccc3o2)c1N [PD98059]
collagen-induced up-regulation of IL-1β release (THP-1 cells [3]): no effect
collagen-induced up-regulation of IL-8 release (THP-1 cells [3]): no effect
collagen-induced up-regulation of MCP-1 release (THP-1 cells [3]): no effect
collagen-induced up-regulation of MIP-1α release (THP-1 cells [3]): no effect
expression of HLA-DR (THP-1 cells [4]; collagen-activated PMA-treated DDR1b-overexpressing cells, 24 hours): no effect

Compound: CCCCCCCCCCCCCC(=O)O[C@@H]1[C@@H](C)[C@@]2(O)[C@@H](C=C(CO)C[C@]3(O)C(=O)C(C)=C[C@@H]23)[C@@H]2C(C)(C)[C@]12OC(C)=O [PMA, phorbol 12-myristate 13-acetate, reference compound]
HLA-DR-positive cells (THP-1 cells [4]; parental, mock, DDR1a- or DDR1b-overexpressing THP-1 cells, uncoated plates, 48 hours): 26 to 28%

Compound: IL-1β: human recombinant interleukin-1β
level of DDR1 mRNA expression (DDR1 mRNA): further augmented
